Several values for one entry are separate records, joined by “and”; a condition that tells them apart may be missing. Identical values can stand only once. Inconclusive results and toxic doses are left out. No stated cut-off is given here; in the data, active means T/C of 150% or more; inactive means T/C below 125%.
Tested on: L1210 leukemia ip in BDF1 mice, survival T/C
Experiment: NCI In Vivo Anticancer Drug Screen. Data for tumor model L1210 Leukemia (intraperitoneal) in B6D2F1 (BDF1) mice
Conditions: endpoint: mean survival time, higher = longer survival
Summary of the method: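 Tumor cells were implanted, animals were treated, and survival was followed. The result divides the treated measurement by the vehicle-control measurement.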

[1] = dose: 100.0 mg/kg/injection, schedule: Q01DX001 (ip), vehicle: saline
[2] = dose: 200.0 mg/kg/injection, schedule: Q01DX001 (ip), vehicle: saline
[3] = dose: 400.0 mg/kg/injection, schedule: Q01DX001 (ip), vehicle: saline
[4] = dose: 100.0 mg/kg/injection, schedule: Q04DX003 (ip), vehicle: Klucel (hydroxypropylcellulose) (HPC)
[5] = dose: 200.0 mg/kg/injection, schedule: Q04DX003 (ip), vehicle: Klucel (hydroxypropylcellulose) (HPC)
[6] = dose: 400.0 mg/kg/injection, schedule: Q04DX003 (ip), vehicle: Klucel (hydroxypropylcellulose) (HPC)
[7] = dose: 100.0 mg/kg/injection, schedule: Q01DX009 (ip), vehicle: saline with Tween-80
[8] = dose: 200.0 mg/kg/injection, schedule: Q01DX009 (ip), vehicle: saline with Tween-80
[9] = dose: 400.0 mg/kg/injection, schedule: Q01DX009 (ip), vehicle: saline with Tween-80
[10] = dose: 100.0 mg/kg/injection, schedule: Q04DX002 (ip), vehicle: saline with Tween-80
[11] = dose: 50.0 mg/kg/injection, schedule: Q01DX009 (ip), vehicle: Klucel (hydroxypropylcellulose) (HPC)
[12] = dose: 100.0 mg/kg/injection, schedule: Q01DX009 (ip), vehicle: Klucel (hydroxypropylcellulose) (HPC)
[13] = dose: 200.0 mg/kg/injection, schedule: Q01DX009 (ip), vehicle: Klucel (hydroxypropylcellulose) (HPC)
[14] = dose: 400.0 mg/kg/injection, schedule: Q01DX009 (ip), vehicle: Klucel (hydroxypropylcellulose) (HPC)

Measured: T/C

Cc1ccc(-c2c([N+](=O)[O-])ccc(Cl)c2[N+](=O)[O-])cc1
inactive: dose: 50.0 mg/kg/injection, schedule: Q01DX001 (ip), vehicle: carboxymethylcellulose (CMC) 102 % of control | dose: 100.0 mg/kg/injection, schedule: Q01DX001 (ip), vehicle: carboxymethylcellulose (CMC) 105 % of control | dose: 200.0 mg/kg/injection, schedule: Q01DX001 (ip), vehicle: carboxymethylcellulose (CMC) 102 % of control | dose: 400.0 mg/kg/injection, schedule: Q01DX001 (ip), vehicle: carboxymethylcellulose (CMC) 100 % of control

CSc1nc2c(=O)[nH]cnc2n1C1OC(CO)C(O)C1O (stereo not given)
inactive: [1] 97 % of control | [2] 111 % of control | [3] 103 % of control

CCNCCC[P+](c1ccccc1)(c1ccccc1)c1ccccc1
inactive: dose: 25.0 mg/kg/injection, schedule: Q04DX002 (ip), vehicle: saline 98 % of control | dose: 50.0 mg/kg/injection, schedule: Q04DX002 (ip), vehicle: saline 105 % of control | dose: 100.0 mg/kg/injection, schedule: Q04DX002 (ip), vehicle: saline 98 % of control and 91 % of control

Cn1cnc2nc(Cl)[nH]c(=O)c21
inactive: [4] 100 % of control | [5] 97 % of control | [6] 95 % of control

CCOC(=O)c1cc2c3n(c1=O)CCCC3C(c1ccc(Cl)c(Cl)c1)OC2=O (stereo not given)
inactive: [1] 97 % of control | [2] 104 % of control | [3] 92 % of control

CN1CCCC1c1cccnc1 (stereo not given)
inactive: dose: 0.5 mg/kg/injection, schedule: Q01DX009 (ip), vehicle: saline 97 % of control | dose: 0.5 mg/kg/injection, schedule: Q01DX Z (ip), vehicle: saline 97 % of control | dose: 1.0 mg/kg/injection, schedule: Q01DX009 (ip), vehicle: saline 95 % of control and 87 % of control | dose: 1.0 mg/kg/injection, schedule: Q01DX Z (ip), vehicle: saline 94 % of control | dose: 2.0 mg/kg/injection, schedule: Q01DX Z (ip), vehicle: saline 95 % of control

ClCc1cc(Cl)c(Cl)cc1Cl
inactive: dose: 25.0 mg/kg/injection, schedule: Q01DX009 (ip), vehicle: acetone 93 % of control | dose: 50.0 mg/kg/injection, schedule: Q01DX009 (ip), vehicle: acetone 92 % of control | dose: 100.0 mg/kg/injection, schedule: Q01DX009 (ip), vehicle: acetone 90 % of control | dose: 100.0 mg/kg/injection, schedule: Q04DX003 (ip), vehicle: acetone 100 % of control | dose: 150.0 mg/kg/injection, schedule: Q01DX009 (ip), vehicle: acetone 95 % of control

CC1CN(c2ccccc2)CN1c1ccccc1 (stereo not given)
inactive: dose: 100.0 mg/kg/injection, schedule: Q04DX002 (sc), vehicle: olive oil, sesame oil, peanut oil 94 % of control | dose: 200.0 mg/kg/injection, schedule: Q04DX002 (sc), vehicle: olive oil, sesame oil, peanut oil 91 % of control | dose: 400.0 mg/kg/injection, schedule: Q04DX002 (sc), vehicle: olive oil, sesame oil, peanut oil 102 % of control

Cc1c2ccccc2cc2c1ccc1cccc(F)c12
inactive: dose: 12.5 mg/kg/injection, schedule: Q01DX009 (ip), vehicle: saline with Tween-80 107 % of control | dose: 25.0 mg/kg/injection, schedule: Q01DX009 (ip), vehicle: saline with Tween-80 104 % of control | dose: 50.0 mg/kg/injection, schedule: Q01DX009 (ip), vehicle: saline with Tween-80 96 % of control

C1CCN2CC3CC(CN4CCCCC34)C2C1 (stereo not given)
inactive: dose: 10.0 mg/kg/injection, schedule: Q01DX009 (ip), vehicle: saline 104 % of control | dose: 20.0 mg/kg/injection, schedule: Q01DX009 (ip), vehicle: saline 102 % of control | dose: 20.0 mg/kg/injection, schedule: Q04DX003 (ip), vehicle: saline 100 % of control | dose: 40.0 mg/kg/injection, schedule: Q01DX009 (ip), vehicle: saline 100 % of control | dose: 40.0 mg/kg/injection, schedule: Q04DX003 (ip), vehicle: saline 96 % of control

CC1(/C=N\NC(N)=O)CC2C=CC1C2 (stereo not given)
inactive: [4] 104 % of control | [5] 98 % of control

CC(C)C(=O)Nc1cccc(Cl)c1
inactive: [7] 95 % of control | [8] 95 % of control | [9] 101 % of control

NC(=S)N/N=C(/C(=O)O)c1ccc([N+](=O)[O-])cc1
inactive: dose: 100.0 mg/kg/injection, schedule: Q01DX001 (ip), vehicle: Klucel (hydroxypropylcellulose) (HPC) 93 % of control | [4] 104 % of control | dose: 200.0 mg/kg/injection, schedule: Q01DX001 (ip), vehicle: Klucel (hydroxypropylcellulose) (HPC) 115 % of control | [5] 98 % of control | dose: 400.0 mg/kg/injection, schedule: Q01DX001 (ip), vehicle: Klucel (hydroxypropylcellulose) (HPC) 96 % of control | [6] 93 % of control

CC(=O)OCCC(CCCl)OC(C)=O (stereo not given)
inactive: [10] 111 % of control | dose: 200.0 mg/kg/injection, schedule: Q04DX002 (ip), vehicle: saline with Tween-80 104 % of control | dose: 400.0 mg/kg/injection, schedule: Q04DX002 (ip), vehicle: saline with Tween-80 93 % of control

NC(=O)C(Cl)CCl (stereo not given)
inactive: dose: 50.0 mg/kg/injection, schedule: Q04DX002 (ip), vehicle: Klucel (hydroxypropylcellulose) (HPC) 104 % of control | dose: 100.0 mg/kg/injection, schedule: Q04DX002 (ip), vehicle: Klucel (hydroxypropylcellulose) (HPC) 101 % of control | dose: 200.0 mg/kg/injection, schedule: Q04DX002 (ip), vehicle: Klucel (hydroxypropylcellulose) (HPC) 104 % of control

CNC(=O)NN
inactive: dose: 25.0 mg/kg/injection, schedule: Q04DX002 (ip), vehicle: saline with Tween-80 97 % of control | dose: 50.0 mg/kg/injection, schedule: Q04DX002 (ip), vehicle: saline with Tween-80 93 % of control | [10] 90 % of control

CSc1nc(N)nc(N)n1
inactive: dose: 25.0 mg/kg/injection, schedule: Q01DX009 (ip), vehicle: Klucel (hydroxypropylcellulose) (HPC) 97 % of control | [11] 100 % of control | [12] 93 % of control and 90 % of control | [13] 98 % of control

O=[N+]([O-])c1cc(S(=O)(=O)O)cc([N+](=O)[O-])c1NN(c1ccccc1)c1ccccc1
inactive: dose: 44.0 mg/kg/injection, schedule: Q04DX003 (ip), vehicle: other 100 % of control | dose: 87.0 mg/kg/injection, schedule: Q04DX003 (ip), vehicle: other 92 % of control | dose: 175.0 mg/kg/injection, schedule: Q04DX003 (ip), vehicle: other 103 % of control

C[Si]1(C)CCCSC1
inactive: [1] 93 % of control | [2] 96 % of control | [3] 97 % of control

CN(C)c1ccc(C(/C=N\O)(c2ccc(N(C)C)cc2)c2ccc(N(C)C)cc2)cc1
inactive: [12] 101 % of control | [4] 90 % of control | [13] 96 % of control | [5] 95 % of control | [14] 101 % of control | [6] 93 % of control

c1ccc(CCCCc2ccc(CCCCc3ccccc3)cc2)cc1
inactive: [1] 101 % of control | [2] 93 % of control | [3] 93 % of control

O=c1c2ccccc2sc2c1ccc1ccccc12
inactive: [4] 100 % of control | [5] 103 % of control | [6] 96 % of control

C[N+](C)(C)CCOS(=O)(=O)[O-]
inactive: dose: 50.0 mg/kg/injection, schedule: Q04DX003 (ip), vehicle: saline 99 % of control | dose: 100.0 mg/kg/injection, schedule: Q04DX003 (ip), vehicle: saline 97 % of control and 103 % of control | dose: 200.0 mg/kg/injection, schedule: Q04DX003 (ip), vehicle: saline 95 % of control and 105 % of control | dose: 400.0 mg/kg/injection, schedule: Q04DX003 (ip), vehicle: saline 98 % of control

O=C(OC1CCCCCCC1OC(=O)c1ccc([N+](=O)[O-])cc1)c1ccc([N+](=O)[O-])cc1 (stereo not given)
inactive: dose: 75.0 mg/kg/injection, schedule: Q01DX001 (ip), vehicle: carboxymethylcellulose (CMC) 93 % of control | dose: 150.0 mg/kg/injection, schedule: Q01DX001 (ip), vehicle: carboxymethylcellulose (CMC) 91 % of control | dose: 300.0 mg/kg/injection, schedule: Q01DX001 (ip), vehicle: carboxymethylcellulose (CMC) 91 % of control

COc1cc2c(cc1OC)C1CCN3C(=O)CCC3N1CC2 (stereo not given)
inactive: [11] 101 % of control | [12] 101 % of control | [7] 95 % of control | [13] 104 % of control | [8] 98 % of control | [9] 98 % of control

O=C(Nc1ccc(Cl)c(Cl)c1)OCCN1CCOCC1
inactive: [12] 92 % of control | [13] 94 % of control | [14] 92 % of control
